Results published in patent publication US20070154452A1, “Therapeutic agent for pancreas cancer” (ORIENT CANCER THERAPY, priority 2004, published 2007).
Where a name gives a salt, the structure may show the parent alone.

What was measured:
Format in all cases: in vivo, human
IFNγ = IFNγ production of the patients' peripheral blood monocyte fraction (EIA); set-up: dose or concentration left out as unconfirmed; conditions: pancreas cancer, 8 cases, before and after Gemzar for three weeks then a week break, FIG. 3
Description: Firstly, a monocyte fraction is separated from blood for preparation. After heparinized peripheral blood is diluted twofold with Phosphate Buffer Saline (PBS) and mixed, the mixture is overlaid on Ficoll-Conray solution (specific gravity 1.077), centrifuged at […] for 20 minutes to collect a monocyte fraction. After washing it, RPMI-1640 medium added with 10% fetal bovine serum (FBS) is added and prepared such that the cell number becomes 1×10^6. Into 200 μl of the obtained cell suspension, Phytohemagglutinin (supplied by DIFCO) is added into a concentration of 20 μg/ml, then cultured it in a 96-well microplate in the presence of 5% CO2 at 37° C. for 24 hours to obtain a sample for measuring two kinds of cytokines in the cultured cell solution. The measurement of IFNγ was conducted by enzyme immunoassay (EIA method) using […] kit from BioSource Europe S. In practice, into a each well of a 96-well microplate, 50 μl of standard or the twofold dilution of prepared sample described above was dispensed, then 50 μl of anti-IFNγ antibody labeled with HRP was dispensed, and further allowed to react for 2 hours at room temperature with shaking. […] The amount of IFNγ is expressed as IU/ml.

NK cells and NKT cells = test: Ratios of NK, NKT and perforin-producing cells to total lymphocytes (flow cytometry); conditions: pancreas cancer, 8 cases, before and after Gemzar, FIG. 4
Description: The measurement of NKT cells having NKR-P1 can be conducted by measuring cell surface antigens (CD3 and CD161 ) which are specifically presented on the NKT cell surface. In particular, lymphocytes in peripheral blood are tested for cells of CD3 positive and CD161 positive [CD3 (+) and CD161 (+)]. Thus, CD3 and CD161 which are cell surface antigens on NKT cell are measured by Two Color assay which uses monoclonal antibodies and flow cytometry. Here, activated NKT cells mean that the ratio of NKT [CD3 (+) and CD161 (+)] cells in lymphocytes is 10% or more, and more preferably 16% or more. The ability of activating NKT cell means the function which can increase NKT cell ratio by 10% or more, and more preferably 16% or more, or which can further increase NKT cell ratio more than that before administering a certain substance. Likewise, [CD3 (−) and CD161 (+) ] means to assay for CD3 negative and CD161 positive cells. This method is useful in measurement of NK cells. In addition, CD8 (+) means to assay for CD8 positive cells. This method is useful in measurement of CTL activity. In the Examples, bloods from cancer patients were used, and cells in blood were separated into positive and negative for cell surface antigens, CD3, CD161 and CD8, and each cell ratio was measured by Two Color assay using flow cytometry following a conventional manner. At this time, monoclonal antibodies used against CD3 , CD161 and CD8 were supplied by Coulter or Becton & Dickinson respectively. For lymphocytes in peripheral blood, two of CD3 , CD161 and CD8 of cell surface antigens and perforin are measured by Three Color assay using flow cytometry following a conventional manner. Specifically, into a collected blood, a fixative solution is added to fix cells, then after adding a membrane permeabilizer, an anti-perforin antibody (supplied by Pharmingen) is added for reaction, further secondary antibody labeled with PRE-Cy5 (from DAKO) is added for reaction, then anti-CD3-PE (Coulter 6604627) antibody and anti-CD161-FITC (B-D) antibody are added for reaction, thereafter subjected to measurement by flow cytometry. They were abbreviated as P or PER in figures and tables.

IL-12 = IL-12 production of the patients' peripheral blood monocyte fraction (ELISA); conditions: pancreas cancer, 8 cases, before and after Gemzar 1000 mg/mm^2 for three weeks then a week break, FIG. 3
Description: Firstly, a monocyte fraction is separated from blood for preparation. After heparinized peripheral blood is diluted twofold with Phosphate Buffer Saline (PBS) and mixed, the mixture is overlaid on Ficoll-Conray solution (specific gravity 1.077), centrifuged at […] for 20 minutes to collect a monocyte fraction. After washing it, RPMI-1640 medium added with 10% fetal bovine serum (FBS) is added and prepared such that the cell number becomes 1×10^6. Into 200 μl of the obtained cell suspension, Phytohemagglutinin (supplied by DIFCO) is added into a concentration of 20 μg/ml, then cultured it in a 96-well microplate in the presence of 5% CO2 at 37° C. for 24 hours to obtain a sample for measuring two kinds of cytokines in the cultured cell solution. To measure the amount of IL-12, a measuring kit based on enzyme immunoassay (ELISA) available from, for example, R&D SYSTEMS and MBL is used, though well known clinical and biochemical examinations can be used. Herein, a measuring kit supplied by R&D SYSTEMS was used. In practice, into each well of a 96-well microplate, 50 μl of measuring diluent of Assay Diluent RD1F, and 200 μl of standard or sample prepared from the preparation method for measuring cytokines described above were dispensed, and then allowed it to stand and react at room temperature for 2 hours. […] The amount of IL-12 is expressed as pg/ml. […]

Th1/Th2 = Th1/Th2 before and after administration of Gemzar; conditions: pancreas cancer, 8 cases, before and after Gemzar 1000 mg/mm^2 for three weeks then a week break, FIG. 3
From the text: Gemcitabine hydrochloride (Gemzar™) is an anticancer agent developed by Eli Lilly and Company. This Gemzar was approved to apply for insurance for pancreas cancer in April in 2001. […] Inhibitory effects were also not observed in the ratios of NK cells (8 cases), perforin-producing NK cells (8 cases), NKT cells (8 cases) and perforin-producing NKT cells (8 cases) to total lymphocytes (FIG. 4).

Nc1ccn([C@@H]2O[C@H](CO)[C@@H](O)C2(F)F)c(=O)n1 [Gemzar, gemcitabine hydrochloride]
not observed: effects inhibiting cytokines: IFNγ (IFNγ) | inhibitory effects on ratio of NK cells to total lymphocytes (NK cells and NKT cells) | inhibitory effects on ratio of NKT cells to total lymphocytes (NK cells and NKT cells) | inhibitory effects on ratio of perforin-producing NK cells to total lymphocytes (NK cells and NKT cells) | inhibitory effects on ratio of perforin-producing NKT cells to total lymphocytes (NK cells and NKT cells) | effects inhibiting cytokines: IL-12 (IL-12) | effects inhibiting cytokines: Th1/Th2 (Th1/Th2)
